Test results published in US20090023801A1, “INHIBITORS OF BETA AMYLOID PRODUCTION” (Wyeth, priority 2007, published 2009).
Where two headings read alike, the source gives them in different places.

Columns and labels:
Format in all cases: cell-based
Aβ40 = test: Aβ-lowering MSD electrochemiluminescent assay of conditioned media from CHO cells expressing human APP (Aβ40)
Description: (§1) The activity of compounds in lowering the generation of Aβ40 and Aβ42, the most abundant forms of beta amyloid, from APP (amyloid precursor protein) was measured in an electrochemiluminescent (ECL) assay of conditioned media from chinese hamster ovary (CHO) cells stably expressing the human amyloid precursor protein (APP) reporter construct, hAPP-REPNL751 (Sughir, R. et al.; J. Biolog. Chem (1992) 267: 25602-25608). Aβ peptides were secreted at high levels into cell culture media by cells carrying the human APP transgene; compounds were tested for their capacity to modulate this production. The Aβ peptide in the conditioned medium was quantitated by a sandwich immunoassay with the MSD ECL detection system. Cell metabolism was measured using a 3-(4,5-dimethylthiazol-2-yl)-5-(3-carboxymethoxypheny)-2-(4-sulfophenyl)-2H-tetrazolium, inner salt (MTS) salt kit (which measures the mitochondrial activity of cells by the bioreduction of Owen's reagent). This assay consists of the following protocol:
(§2) 1. hAPP-REPNL751CHO cells were seeded into 96 well plates and incubated until about 60-70% confluence.
(§3) 2. Medium was removed, cells were washed, and fresh serum-free medium (Ultraculture) was put on cells.
(§4) 3. Compounds were diluted and then added to the cell medium.
(§5) 4. Cells were incubated, with compounds, for indicated times.
(§6) 5. Streptavidin coated Meso Scale Discover (MSD) plates (MSD standard MULTI-ARRAY® 96 plate, cat.# P11SA-1) were washed […] with TTBS (Tris-buffered saline, the TWEEN® 20 reagent).
(§7) 6. 20 μL conditioned medium were removed from the cells and added to the TTBS prewashed MSD plates.
(§8) 7. Standard curve dilutions of synthetic Aβ40 and Aβ42 were prepared and added to the MSD plates.
(§9) 8. A reagent mix was prepared in 1% MSD Blocker A (appropriate concentration of biotinylated 6E10 antibody, detection antibodies to Aβ40, Aβ42, and MSD ruthinylated tag antibody).
(§10) 9. 20 μL reagent mix was distributed to sample plate.
(§11) 10. Plates were incubated with shaking overnight at 4° C.
(§12) 11. Plates were washed 3× with TTBS.
(§13) 12. 150 μL read buffer was added per well (MSD® Read Buffer T, cat#R92TC-2, made 1× with distilled water).
(§14) 13. Plates were read in a MSD® plate reader within 2 hours.
(§15) Assays were accepted or rejected based upon specific performance criteria, including regression coefficient of standard curve, adequate signal to noise ratio, sample signals lying within the range of the standard curve, etc.: the specific parameters were established for each tissue type prior to performing an assay, and were included in the full analytical procedure.
(§16) Plate data from both assays (MTS and MSD® ELISA) were transferred into a Microsoft EXCEL® spreadsheet to determine the toxicity, and inhibition caused by the compounds. Standard curves of Aβ were generated using LSW™ toolbar Hill slope model 42, with 1/y weighting (general sigmoidal curve with Hill slope, a to d; y=(a−d)/(1+(x/c)̂b)+d). Inhibition data were expressed as a percent of the average of the Aβ values in the vehicle treated wells (all values are background subtracted), using LSW™ toolbar Hill Slope model 68 (ligand-receptor binding/sigmoidal, with Hill slope and Bmax to 0; y=Bmax*(1−(x̂n/(K̂n+x̂n))), after raw values were translated/transformed into absolute Aβ values utilizing the standard curve generated as described above (e.g. back calculate absolute Aβ values from the raw values utilizing standard curve). Onboard controls to verify assay performance were checked to assure that amyloid is within linear detection range of the assay, that cells were expressing correctly, and that the MSD itself was performing according to quality control (QC) standards.
(§17) % Inhibition>50% may be considered a positive response or an interesting result in this assay; EC50 determination were determined.
(§18) The beta amyloid inhibitory activity of compounds of formula (I) was determined using the MSD ECL assay. Inhibition of Notch processing was measured using the stable transfection reporter assay See, Table 1 below.

Aβ42 = test: Aβ-lowering MSD electrochemiluminescent assay of conditioned media from CHO cells expressing human APP (Aβ42)
Description: as §1, §2, §3, §4, §5, §6, §7, §8, §9, §10, §11, §12, §13, §14, §15, §16, §17, §18

Notch = test: Stable transfection Notch reporter assay (HES1-SEAP, P8H6 CHO-K1 cells)
Excerpt: A concern with compounds that lower beta amyloid synthesis by targeting the γ-secretase enzyme is that this enzyme also is involved in the cleavage of other substrates besides APP especially the Notch substrate. […] Thus, a selectivity of APP cleavage over Notch cleavage is desired in order to avoid G.I. side effects. The activity of compounds in cleaving Notch can be measured in a whole cell functional Notch assay. This is an assay to determine the effects of compounds on the S3 (γ-secretase like) processing of Notch. […] SEAP transactivation is then detected by luminescent assay. The assay consists of the following protocol:
• (i) Materials: The P8H6 inducible stable cell line was derived from T-REX™ CHO-K1, stably expressing Tet repressor, Notch (pZX1) and HES1-SEAP (pZX2) reporter constructs. A Wallac 1450 Victor™ Luminescence Counter was used to measure luminescent signal. All other materials and reagents were of highest quality available and were all from commercial sources.
(ii) Construct Description: • pZX1: Mouse Notch1 with deleted extracellular domain cloned at Hind III/Xho I sites of pcDNA5/TO vector: Ampicillin Resistance for bacteria, hygromycin resistance for cells. • pZX2: Mouse HES1 promoter together with reporter gene SEAP cloned at Not I/Apa I sites of pcDNA3.1 with deletion of CMV promoter.
(iii) Procedure: • 1. P8H6 cells were grown in Ham's F12 complete growth media containing 10% FBS (reduced tetracycline), 2 mM of L-glutamine, 1 mg/mL of hygromycin, 1 mg/mL of the GENETICIN® antibiotic, 10 μg/mL of Blasticidin and 1% Penicillin-Streptomycin were supplemented with doxycline with final induction concentration of 0.2 μg/mL. The cells were seeded in 96-well tissue culture plate at 8000/well. • 2. Test compounds in 0.2% DMSO/25 mM HEPES buffer were diluted at final working concentration of 20 μM, 6.7 μM, 2.2 μM, 741 nM, 247 nM, 82 nM, 27 nM, 9 nM and 3 nM. Diluted compounds then were added to P8H6 cells in 96-well tissue culture plates. For vehicle samples, the same volume of 0.2% DMSO/25 mM HEPES buffer was added. • 3. Cells were incubated at 37° C., 5% CO2 for 48 hours. • 4. SEAP levels in the conditioned media were assessed using the Clontech GREATESCAPE™ SEAP Chemiluminescence detection kit according to the manufacturer's instruction. Briefly, 15 μL of conditioned media were mixed with 45 μL of the dilution buffer and incubated at 65° C. for 45 minutes. After cooling, assay buffer was added and the sample was incubated with the CSPD® substrate. • 5. Luminescence was measured in a Wallac 1450 VICTOR™ luminescence counter.
EC50 was the compound concentration that was estimated to provide a 50% reduction of maximum response in Notch induced SEAP levels. An EC50 from a given assay may only be used for averaging if it has met the following criteria: • 1. There is a lower dose in the assay which gives a % Notch Activity>60% (bracketing lower dose). • 2. There is a higher dose in the assay which gives a % Notch Activity<30% (bracketing higher dose), and the maximum inhibition is reached (e.g., a given compound might achieve 80% inhibition (% Notch activity is about 20%) over several doses, and therefore 20% would be considered the maximum inhibition.
Data were analyzed in Microsoft EXCEL® format. EC50 was calculated by LSW using sigmoidal inhibition from B0 to nsb model (model 59). Each assay plate contained a dose response curve for the reference compound 5-chloro-N-[(1S,2R)-2-ethyl-4,4,4-trifluoro-1-(hydroxymethyl)butyl]thiophene-2-sulfonamide. This compound is discussed in International Patent Publication No. WO 2004/092155. The following data is not shown in that publication.
as §18

[1] = MSD electrochemiluminescent assay, hAPP-REPNL751 CHO cells, read-out: Aβ40 EC50 for inhibition of Aβ40
[2] = MSD electrochemiluminescent assay, hAPP-REPNL751 CHO cells, read-out: Aβ42 EC50 for inhibition of Aβ42
[3] = CHO-K1, stable transfection Notch reporter assay, 48 hours, read-out: Notch EC50 for inhibition of Notch

Structure (SMILES)	EC50 (Aβ40; [1]) [nM]	EC50 (Aβ42; [2]) [nM]	EC50 (Notch; stable transfection Notch reporter assay, 48 hours, read-out: Notch EC50 for inhibition of Notch) [nM]	EC50 (Notch; [3]) [nM]	EC50 (Aβ40; CHO, beta amyloid assay reference compounds, read-out: EC50 Aβ40) [nM]	EC50 (Aβ42; CHO, beta amyloid assay reference compounds, read-out: EC50 Aβ42) [nM]	EC50 (Notch; CHO-K1, Notch assay reference compounds, read-out: EC50 (Notch assay)) [nM]
O=S(=O)(N[C@@H](CO)[C@@H](c1cc(F)cc(F)c1)C(F)(F)F)c1ccc(Cl)s1.O=S(=O)(N[C@H](CO)[C@H](c1cc(F)cc(F)c1)C(F)(F)F)c1ccc(Cl)s1 (relative stereo) [Example 7, 5-Chloro-N-[(1S*,2S*)-2-(3,5-difluorophenyl)-3,3,3-trifluoro-1-(hydroxymethyl)propyl]thiophene-2-sulfonamide and 5-chloro-N-[(1R*,2R*)-2-(3,5-difluorophenyl)-3,3,3-trifluoro-1-(hydroxymethyl)propyl]thiophene-2-sulfonamide]	7300	8750	> 20000	–	–	–	–
O=S(=O)(N[C@H](CO)[C@@H](c1cc(F)cc(F)c1)C(F)(F)F)c1ccc(Cl)s1 (relative stereo) [Example 8, 5-Chloro-N-[(1S*,2R*)-2-(3,5-difluorophenyl)-3,3,3-trifluoro-1-(hydroxymethyl)propyl]thiophene-2-sulfonamide]	83	80	–	2780	–	–	–
O=S(=O)(N[C@H](CO)[C@H](c1ccc(F)cc1)C(F)(F)F)c1ccc(Cl)s1 (relative stereo) [Example 10, 5-Chloro-N-[(1S*,2S*)-3,3,3-trifluoro-2-(4-fluorophenyl)-1-(hydroxymethyl)propyl]thiophene-2-sulfonamide]	1880	1570	–	> 20000	–	–	–
O=S(=O)(N[C@@H](CO)[C@@H](c1ccccc1)C(F)(F)F)c1ccc(Cl)s1 (stereo in doubt) [Example 2, 5-Chloro-N-[(1R* ,2R*)-3,3,3-trifluoro-1-(hydroxymethyl)-2-phenylpropyl]thiophene-2-sulfonamide]	> 15000	> 15000	–	–	–	–	–
O=S(=O)(N[C@H](CO)[C@H](c1ccccc1)C(F)(F)F)c1ccc(Cl)s1 (stereo in doubt) [Example 5, 5-Chloro-N-[(1S*,2S*)-3,3,3-trifluoro-1-hydroxymethyl-2-phenylpropyl]thiophene-2-sulfonamide]	7520	7200	–	> 20000	–	–	–
O=S(=O)(N[C@@H](CO)[C@H](c1ccccc1)C(F)(F)F)c1ccc(Cl)s1 [Example 3, 5-Chloro-N-[(1R,2S)-3,3,3-trifluoro-1-(hydroxymethyl)-2-phenylpropyl]thiophene-2-sulfonamide]	> 15000	> 15000	–	–	–	–	–

Continued, values first:

EC50 (Aβ40; [1]) [nM]	EC50 (Aβ42; [2]) [nM]	EC50 (Notch; stable transfection Notch reporter assay, 48 hours, read-out: Notch EC50 for inhibition of Notch) [nM]	EC50 (Notch; [3]) [nM]	EC50 (Aβ40; CHO, beta amyloid assay reference compounds, read-out: EC50 Aβ40) [nM]	EC50 (Aβ42; CHO, beta amyloid assay reference compounds, read-out: EC50 Aβ42) [nM]	EC50 (Notch; CHO-K1, Notch assay reference compounds, read-out: EC50 (Notch assay)) [nM]	Structure (SMILES)
187	178	–	> 20000	–	–	–	O=S(=O)(N[C@H](CO)[C@@H](c1ccc(F)cc1)C(F)(F)F)c1ccc(Cl)s1 (relative stereo) [Example 9, 5-Chloro-N-[(1S*,2R*)-3,3,3-trifluoro-2-(4-fluorophenyl)-1-(hydroxymethyl)propyl]thiophene-2-sulfonamide]
4060	3380	–	> 20000	–	–	–	O=S(=O)(N[C@H](CO)[C@H](c1cccc(F)c1)C(F)(F)F)c1ccc(Cl)s1 (relative stereo) [Example 11, 5-Chloro-N-[(1S*,2S*)-3,3,3-trifluoro-2-(3-fluorophenyl)-1-(hydroxymethyl)propyl]thiophene-2-sulfonamide]
98	98	–	1740	–	–	–	O=S(=O)(N[C@H](CO)[C@@H](c1cccc(F)c1)C(F)(F)F)c1ccc(Cl)s1 (relative stereo) [Example 12, 5-Chloro-N-[(1S*,2R*)-3,3,3-trifluoro-2-(3-fluorophenyl)-1-(hydroxymethyl)propyl]thiophene-2-sulfonamide]
316	396	–	7600	–	–	–	O=S(=O)(N[C@H](CO)[C@@H](c1ccc(Cl)cc1)C(F)(F)F)c1ccc(Cl)s1 (relative stereo) [Example 13, 5-Chloro-N-[(1S*,2R*)-2-(4-chlorophenyl)-3,3,3-trifluoro-1-(hydroxymethyl)propyl]thiophene-2-sulfonamide]
2360	2280	–	> 20000	–	–	–	O=S(=O)(N[C@H](CO)[C@H](c1ccc(Cl)cc1)C(F)(F)F)c1ccc(Cl)s1 (relative stereo) [Example 14, 5-Chloro-N-[(1S*,2S*)-2-(4-chlorophenyl)-3,3,3-trifluoro-1-(hydroxymethyl)propyl]thiophene-2-sulfonamide]
–	–	–	–	6	5	225	CC[C@H](CC(F)(F)F)[C@@H](CO)NS(=O)(=O)c1ccc(Cl)s1 [5-chloro-N-[(1S,2R)-2-ethyl-4,4,4-trifluoro-1-(hydroxymethyl)butyl]thiophene-2-sulfonamide, reference compound]
